Values of other authors as cited in patent US20250325256A1, “LIPID PATCH” (SENSACH AB, priority 2021, published 2025).

Conditions: cited from earlier work

Compound: CCCCCCCC/C=C\CCCCCCCC(=O)OCC(O)CO (stereo not shown) [GMO, Glycerol monooleate]
- solubility in water: around 10^−6 M
